Laboratory results from paper PMC4050309, “Five New Guanacastane-Type Diterpenes from Cultures of the Fungus Psathyrella candolleana” (Natural Products and Bioprospecting, 2014).

Assays:
[1] = molecular target: T1, mouse 11β-HSD1 (11β-hydroxysteroid dehydrogenase) (Mus musculus, UniProt P50172); experiment: scintillation proximity assay, [3H]cortisone to [3H]cortisol, microsomes overexpressing […]β-HSD1; type: biochemical
T1 construct: gene Hsd11b1; full-length cDNA, microsomal fraction of stably transfected HEK-293 cells

[2] = molecular target: T2, human 11β-HSD1 (11β-hydroxysteroid dehydrogenase) (Homo sapiens, UniProt P28845); experiment: as above; type: biochemical
T2 construct: gene HSD11B1; full-length cDNA, microsomal fraction of stably transfected HEK-293 cells
T2 sequence (P28845 whole entry): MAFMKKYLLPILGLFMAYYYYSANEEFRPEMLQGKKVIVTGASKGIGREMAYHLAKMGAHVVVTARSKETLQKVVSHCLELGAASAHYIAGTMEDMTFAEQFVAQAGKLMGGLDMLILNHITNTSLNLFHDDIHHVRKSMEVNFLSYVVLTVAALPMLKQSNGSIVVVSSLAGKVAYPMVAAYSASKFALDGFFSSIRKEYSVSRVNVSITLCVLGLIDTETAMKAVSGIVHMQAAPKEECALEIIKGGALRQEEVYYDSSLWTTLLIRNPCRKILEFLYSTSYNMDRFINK

T1 sequence (P50172 whole entry): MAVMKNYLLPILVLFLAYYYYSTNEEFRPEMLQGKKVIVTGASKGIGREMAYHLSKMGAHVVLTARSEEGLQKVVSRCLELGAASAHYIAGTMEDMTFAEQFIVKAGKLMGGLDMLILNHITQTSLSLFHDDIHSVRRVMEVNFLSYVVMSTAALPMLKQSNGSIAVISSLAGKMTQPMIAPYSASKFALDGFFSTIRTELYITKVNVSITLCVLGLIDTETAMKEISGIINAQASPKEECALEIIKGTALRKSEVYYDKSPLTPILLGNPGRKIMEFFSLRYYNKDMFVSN

Row | Compound | IC50 [1] | IC50 [2]
1 | CC(C)C1=C(O)C(=O)C2=CC3=C(CO)C(=O)CC[C@@]3(C)CC[C@@]21C [compound 3, Guanacastepene R] | 13.9 µM | 6.2 µM
2 | CC1(C)[C@@H](O[C@H]2O[C@H](C(=O)O)[C@@H](O)[C@H](O)[C@H]2O[C@@H]2O[C@H](C(=O)O)[C@@H](O)[C@H](O)[C@H]2O)CC[C@]2(C)[C@H]3C(=O)C=C4[C@@H]5C[C@@](C)(C(=O)O)CC[C@]5(C)CC[C@@]4(C)[C@]3(C)CC[C@@H]12 [glycyrrhizinic acid] | 0.0065 µM | 0.0042 µM
